Measured values as given in patent publication US10154990B2, “Medicaments for the treatment or prevention of fibrotic diseases” (Boehringer Ingelheim International GmbH, priority 2004, dated 2018).

How the values were obtained:
[1] = test system: Bleomycin-induced Pulmonary Fibrosis; test: Lung morphology following bleomycin-induced pulmonary fibrosis (histology, Masson's Trichrome); type: in vivo, Male Wistar rats; conditions: bleomycin-treated rats (10 U/kg intratracheal), daily oral treatment with 50 mg/kg, days 1-21, lungs removed 21 days after instillation
Procedure: (A) Effect of a Representative Compound on Lung Morphology Following Bleomycin-induced Pulmonary Fibrosis. Bleomycin sulfate (Bleomycin […]) was purchased from a local pharmacy. All experiments were performed in accordance with German guidelines for animal welfare, performed by persons certified to work with animals and approved by the responsible authorities. Male Wistar rats were intratracheally injected with Bleomycin sulfate (10U/kg body weight in 300 μl saline) or saline alone (saline control) using a catheter (0.5 mm internal diameter, 1.0 mm external diameter) through the nasal passage, following exposure to the anaesthetic Isofluorane for 5 minutes. The following day, the rats were orally treated with Example A (compound (m)) or saline suspended in 1 ml 0.1% Natrosol. Control rats were administered 1 ml 0.1% Natrosol (vehicle control). [table] 21 days following bleomycin instillation, the rats were killed with a lethal intraperitoneal injection of NarcorenTM (Pentobarbital Sodium, Rhone Merieux). The lungs were then removed, blotted dry and half was snap frozen in liquid nitrogen and stored at -80° C. The other half was fixed in 4% formalin for subsequent paraffin embedding and histology. […] Collagen deposition was assessed using Masson's Trichrome staining. […]

fibrotic marker genes = test: Expression of fibrotic marker genes in lung following bleomycin-induced pulmonary fibrosis (real time PCR); type: in vivo, Male Wistar rats; conditions: bleomycin-treated rats, daily 50 mg/kg, days 1-21, real time PCR normalized to 18S
Procedure: (B) Effect of a Representative Compound on Expression of Fibrotic Marker Genes Following Bleomycin-induced Pulmonary Fibrosis.
One part of the frozen lung tissue dedicated to investigation of gene expression was cut into small pieces using a sterile scalpel blade. Approximately 100 mg of tissue was then placed into a 2 ml Eppendorf tube and 1.5 ml of Trizol (Invitrogen) was added. A sterile tungsten carbide bead (Qiagen) was then added to the tube and the tube was placed in a Retsch MM300 Tissue disruptor (Qiagen) at a frequency of 30.0 Hz for 8 minutes. After this time, the bead was removed and the sample centrifuged at 12000 rpm for 10 minutes to remove tissue debris. The RNA was extracted using a modified version of the manufacturer's protocol supplied with Trizol. […] The concentration of each sample was then measured using a spectrophotometer. […]
Real Time PCR was carried out in 25 μl reactions, using 25 ng (5 μl) of cDNA per reaction. A quantitative PCR core kit was purchased (Eurogentec) and a master-mix was made up as follows for 100 reactions: 500 μl 10× reaction buffer, 500 μl MgCl2 (50 mM), 200 μl dNTP mix solution (5 mM), 25 μl Hot Goldstar enzyme, 75 μl 18S PDAR, 22.5 μl forward primer, 22.5 μl reverse primer, 15 μl probe and […] DEPC treated water. […]
In order to quantify the gene expression, a standard curve was constructed for each primer set and was included on each plate. […]

melting point | Structure (SMILES) | lung fibrosis (lung morphology, collagen deposition by Masson's Trichrome staining) [1] | other results
171 to 175 °C | CCNC(=O)c1ccc2c(c1)NC(=O)/C2=C(\Nc1ccc(N(CCCN(C)C)S(C)(=O)=O)cc1)c1ccccc1 [(cn), 3-Z-[1-(4-(N-(3-dimethylamino-propyl)-N-methylsulphonyl-amino)-anilino)-1-phenyl-methylene]-6-ethylcarbamoyl-2-indolinone] | – | –
221 °C | COC(=O)c1ccc2c(c1)NC(=O)/C2=C(\Nc1ccc(N(C)C(=O)CN)cc1)c1ccccc1 [(x), 3-Z-[1-(4-(N-aminomethylcarbonyl-N-methyl-amino)-anilino)-1-phenyl-methylene]-6-methoxycarbonyl-2-indolinone] | – | –
217 to 220 °C | CCNC(=O)c1ccc2c(c1)NC(=O)/C2=C(\Nc1ccc(C(=O)N2C[C@@H](C)N[C@@H](C)C2)cc1)c1ccccc1 [(cm), 3-Z-[1-(4-((cis-3,5-dimethyl-piperazin-1-yl)-carbonyl)-anilino)-1-phenyl-methylene]-6-ethylcarbamoyl-2-indolinone] | – | –

More lines, now with the values behind:

Structure (SMILES) | melting point | lung fibrosis (lung morphology, collagen deposition by Masson's Trichrome staining) [1] | other results
COC(=O)c1ccc2c(c1)NC(=O)/C2=C(\Nc1ccc(N(C)C(=O)CN(C)C)cc1)c1ccccc1 [Compound (m), 3-Z-[1-(4-(N-dimethylaminomethylcarbonyl-N-methyl-amino)-anilino)-1-phenyl-methylene]-6-methoxycarbonyl-indolinone] | – | consistent, nearly complete reversal of lung fibrosis | expression of fibrotic marker genes (procollagen I, fibronectin) in the lung (fibrotic marker genes; FIGS. 2 and 3, vs bleomycin + vehicle): significant (p≤0.0001) inhibition
COC(=O)c1ccc2c(c1)NC(=O)/C2=C(\Nc1ccc(N(C)C(=O)CN2CCN(C)CC2)cc1)c1ccccc1 [Compound (u), 3-Z-[1-(4-(N-((4-methyl-piperazin-1-yl)-methylcarbonyl)-N-methyl-amino)-anilino)-1-phenyl-methylene]-6-methoxycarbonyl-2-indolinone] | – | consistent, nearly complete reversal of lung fibrosis | expression of fibrotic marker genes (procollagen I, TGFb) in the lung (fibrotic marker genes; FIGS. 5 and 6, vs bleomycin + vehicle): significant (p≤0.0001) inhibition
COC(=O)c1ccc2c(c1)NC(=O)/C2=C(\Nc1ccc(N(C)C(=O)CC2CCN(C)CC2)cc1)c1ccccc1 [(ad), 3-Z-[1-(4-(N-((1-methyl-piperidin-4-yl)-methylcarbonyl)-N-methyl-amino)-anilino)-1-phenyl-methylene]-6-methoxycarbonyl-2-indolinone] | 190 to 193 °C | – | –
